Laboratory results taken from ChEMBL document CHEMBL1201862, “PubChem BioAssay data set” (2004).
Active and inactive are the calls of the source.

Legend:
[1] = target: 5-hydroxytryptamine receptor 1A (Homo sapiens, UniProt P08908); assay type: functional
[2] = Shn3 3'UTR reporter inhibitors, dose response, cell-based, Clone20 osteoblasts, firefly luciferase, cherry-picked (AID 624132); assay type: functional;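 also: firefly luciferase luminescence from reporter carrying the Shn3 3'UTR in osteoblasts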
Fatty acid synthase [3] = target: T1, Fatty acid synthase (Homo sapiens, UniProt P49327); assay: FAS thioesterase domain inhibitors, dose response, biochemical, endpoint fluorescence intensity, uHTS hits (AID 624327); assay type: functional;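 also: fluorescence from hydrolysis of an O-methyl fluorescein acyl ester substrate by the enzyme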
[4] = target: T2, Sphingosine 1-phosphate receptor 4 (Homo sapiens, UniProt O95977); assay: Fluorescence dose response cell-based high throughput screening assay for antagonists of the Sphingosine 1-Phosphate Receptor 4 (S1P4). [Related pubchem assays: 1524 (Confirmation in triplicates.), 1510 (Primary screen.)]; assay type: functional
T2 sequence (O95977 whole entry): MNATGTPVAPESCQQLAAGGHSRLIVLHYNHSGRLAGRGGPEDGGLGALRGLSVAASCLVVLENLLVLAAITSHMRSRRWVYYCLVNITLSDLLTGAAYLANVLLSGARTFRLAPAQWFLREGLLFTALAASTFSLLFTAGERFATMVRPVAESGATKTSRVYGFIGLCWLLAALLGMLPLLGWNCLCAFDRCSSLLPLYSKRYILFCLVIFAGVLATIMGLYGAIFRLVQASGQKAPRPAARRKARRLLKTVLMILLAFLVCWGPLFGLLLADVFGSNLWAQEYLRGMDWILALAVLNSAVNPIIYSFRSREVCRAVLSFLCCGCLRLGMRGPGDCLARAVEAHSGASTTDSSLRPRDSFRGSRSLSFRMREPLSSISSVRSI

[5] = target: T3, Replicative DNA helicase DnaB (Mycobacterium tuberculosis, UniProt P9WMR3); assay: DnaB intein splicing inhibitors, dose response, biochemical, cell-free fluorescence (AID 449749); assay type: functional
T3 sequence (P9WMR3 whole entry): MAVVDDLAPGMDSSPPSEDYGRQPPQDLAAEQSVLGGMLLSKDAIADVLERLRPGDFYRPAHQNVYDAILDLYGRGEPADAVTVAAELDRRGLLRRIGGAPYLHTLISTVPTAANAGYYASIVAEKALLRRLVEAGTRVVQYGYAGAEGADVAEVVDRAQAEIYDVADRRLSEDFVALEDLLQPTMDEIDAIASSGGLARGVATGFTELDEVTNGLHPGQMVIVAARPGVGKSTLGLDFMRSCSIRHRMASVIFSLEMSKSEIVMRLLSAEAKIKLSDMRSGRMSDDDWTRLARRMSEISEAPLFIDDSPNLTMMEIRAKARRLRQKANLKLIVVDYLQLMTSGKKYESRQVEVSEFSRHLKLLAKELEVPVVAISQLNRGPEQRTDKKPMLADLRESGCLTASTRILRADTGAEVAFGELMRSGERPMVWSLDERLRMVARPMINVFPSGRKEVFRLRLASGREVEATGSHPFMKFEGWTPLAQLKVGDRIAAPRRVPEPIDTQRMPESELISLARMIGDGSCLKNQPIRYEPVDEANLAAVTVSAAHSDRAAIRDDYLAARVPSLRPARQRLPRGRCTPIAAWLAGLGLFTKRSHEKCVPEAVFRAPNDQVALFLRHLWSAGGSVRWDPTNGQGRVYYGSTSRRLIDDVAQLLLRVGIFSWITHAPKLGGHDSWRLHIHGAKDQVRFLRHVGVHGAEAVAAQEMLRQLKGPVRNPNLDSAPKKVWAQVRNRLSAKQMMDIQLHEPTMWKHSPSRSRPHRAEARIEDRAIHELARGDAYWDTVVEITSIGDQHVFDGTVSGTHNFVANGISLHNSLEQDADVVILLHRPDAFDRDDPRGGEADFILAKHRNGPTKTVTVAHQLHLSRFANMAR

Protein RecA = target: T4, Protein RecA (Mycobacterium tuberculosis, UniProt P9WHJ3); assay: Fluorescence Cell-Free Homogeneous Dose Retest to Identify Inhibitors of RecA-Intein Splicing Activity. [Related pubchem assays (depositor defined):AID2097, AID2223, AID489010, AID492950]; assay type: functional
T4 sequence (P9WHJ3 whole entry): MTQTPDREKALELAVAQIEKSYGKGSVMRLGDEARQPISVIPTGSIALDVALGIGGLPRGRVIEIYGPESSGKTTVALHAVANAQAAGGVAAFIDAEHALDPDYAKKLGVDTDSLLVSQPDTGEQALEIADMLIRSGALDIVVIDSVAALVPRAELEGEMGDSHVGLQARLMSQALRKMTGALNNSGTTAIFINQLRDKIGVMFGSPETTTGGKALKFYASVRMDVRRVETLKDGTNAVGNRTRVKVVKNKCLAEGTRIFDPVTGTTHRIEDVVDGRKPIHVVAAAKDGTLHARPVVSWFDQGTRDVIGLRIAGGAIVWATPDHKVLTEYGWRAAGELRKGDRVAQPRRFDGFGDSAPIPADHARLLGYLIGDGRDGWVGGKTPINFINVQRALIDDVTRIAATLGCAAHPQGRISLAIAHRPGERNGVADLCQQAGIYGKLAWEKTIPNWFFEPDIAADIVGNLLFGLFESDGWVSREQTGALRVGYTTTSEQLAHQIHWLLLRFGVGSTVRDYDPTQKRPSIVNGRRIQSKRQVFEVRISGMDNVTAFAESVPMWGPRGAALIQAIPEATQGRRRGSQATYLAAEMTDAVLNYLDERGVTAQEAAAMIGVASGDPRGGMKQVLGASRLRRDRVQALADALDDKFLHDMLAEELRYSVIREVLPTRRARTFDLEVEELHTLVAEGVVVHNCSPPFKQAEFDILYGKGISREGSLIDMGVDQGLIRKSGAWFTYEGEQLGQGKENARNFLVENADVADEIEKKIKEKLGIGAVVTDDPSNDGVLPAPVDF

[6] = target: T2, Sphingosine 1-phosphate receptor 4; assay: Late stage fluorescence dose response cell-based screening assay for antagonists of the Sphingosine 1-Phosphate Receptor 4 (S1P4). [Related pubchem assays: 1524 (Confirmation screen (S1P4 antagonists).), 1510 (Primary screen (S1P4 antagonists).), 1853 (Summary AID (S1P4 antagonists).), 1692 (Dose response screen (S1P4 antagonists).)]; assay type: functional
[7] = Luminescent dose response cell-based high throughput screening assay for inhibitors of the Janus kinase 2 mutant JAK2V617F. [Related pubchem assays: 1446 (Primary screen.), 1521 (Confirmation assay.), 1486 (Counter screen.)]; assay type: functional
[8] = target: Sphingosine 1-phosphate receptor 1 (Homo sapiens, UniProt P21453); assay type: functional;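 also: Tango beta-arrestin reporter U2OS cells stimulated with S1P near its EC80; inhibitor potency meaning antagonism of receptor activation by the natural agonist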
Fatty acid synthase [9] = target: T1, Fatty acid synthase; assay: FAS thioesterase domain inhibitors, dose response, biochemical, kinetic fluorescence intensity (AID 624326); assay type: functional;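 also: rate of fluorescence rise from hydrolysis of a fluorogenic O-methyl fluorescein ester substrate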
[10] = HepG2 cell cytotoxicity, dose response, cytotoxicity control for Shn3 inhibitor project, CellTiter-Glo, cherry-picked (AID 624134); assay type: functional, cell-based
[11] = control 3'UTR Renilla luciferase suppression, dose response, counter-screen for Shn3 inhibitor project, cell-based, Clone20-Shn3RL, cherry-picked (AID 624133); assay type: functional
INS1 = assay: beta cell apoptosis inhibitors, cytokine rescue, dose response, luminescence, retest (AID 449756); assay type: functional, cell-based; settings: Rattus norvegicus;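 also: cell death triggered by IL-1 beta plus TNF-alpha plus IFN-gamma mixture; protective hits raise ATP signal compared with cytokine alone wells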
[12] = target: Heat shock protein HSP 90-alpha (Homo sapiens, UniProt P07900); assay type: functional, organism-based
Prothrombin = Prothrombin (Homo sapiens, UniProt P00734); assay: Thrombin 1536 HTS Dose Response Confirmation. [Related pubchem assays: 1046 (Thrombin 1536 HTS; hits were confirmed in this assay)]; assay type: functional
[13] = cytotoxicity in MIN6 insulinoma cells, dose response, cytotoxicity control, cell-based, mouse insulinoma (AID 2122); assay type: functional;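 also: confirmatory high-throughput counterscreen run to flag cytotoxic compounds; mouse MIN-6 beta cells carrying an insulin promoter eGFP reporter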
[14] = insulin promoter down-regulators in MIN6 cells, imaging, high-content screening, mouse beta cells (AID 1628); assay type: functional
[15] = Luminescence-based dose response cell-based high throughput screening assay for cytotoxic compounds using the IEC-6 intestinal epithelial cell line. [Related pubchem assays: 1858 (Summary AID.), 1825 (Counterscreen.), 1907 (Confirmation screen.)]; assay type: functional
[16] = inhibitors of SNCA 5'UTR-driven reporter translation, confirmation, H4 neuroglioma cells, luminescence (AID 1988); assay type: functional, cell-based
[17] = inhibitors of intracellular T. cruzi replication, confirmation, NIH3T3 host cells, beta-gal luminescence (AID 2044); assay type: functional, cell-based;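 also: intracellular parasites grown in NIH/3T3 mouse fibroblasts as host cells; luminescent beta-galactosidase reporter signal from transgenic T. cruzi replicating inside host cells; inhibitors lower the luminescence signal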
[18] = microbe, parasite or virus in culture; assay type: functional; settings: Mycobacterium tuberculosis
[19] = target: Luciferin 4-monooxygenase (Photinus pyralis, UniProt P08659); assay: firefly luciferase enzyme inhibitors, dose response, biochemical, luminescence (AID 1891)
[20] = cytotoxicity in KRAS-transformed pancreatic duct cells, primary screen, cell-based, fluorescence, HTS (AID 431); assay type: functional; settings: Homo sapiens;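 also: cell line used: HPDE-C7K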
[21] = cytotoxicity in HPDE-C7 cells, cell-based, fluorescence, HTS (AID 430); assay type: functional; settings: Homo sapiens
[22] = cytotoxicity toward NIH3T3 fibroblasts, dose response, counter-screen, cell-based, ATP luminescence, mouse fibroblasts (AID 2010); assay type: functional;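 also: cells exposed to compound for about 90 hours before reading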
[23] = Luminescence Cell-Based Dose Confirmation HTS to Identify Inhibitors of Platelet Dense Granule Release. [Related pubchem assays: 1663 (Primary HTS), 1678 (Summary of Project)]; assay type: functional
[24] = Luminescence Cell-Based Dose Response HTS to Identify Inhibitors of 5'UTR Stem-Loop Driven Prion Protein mRNA Translation in H4 Neuroglioblastoma Cells. [Related pubchem assays: 1827 (Project Summary), 1813 (Primary HTS)]; assay type: functional
[25] = inhibitors of firefly luciferase expression or activity, dose response, H4 neuroglioma cells, luminescence (AID 1990); assay type: functional, cell-based
[26] = Luminescence Cell-Based Dose Retest to Confirm Inhibitors of Cancer Stem Cells. [Related pubchem assays (depositor defined):AID2717, AID2721]; assay type: functional; settings: Homo sapiens
[27] = target: DNA repair and recombination protein RAD54-like (Homo sapiens, UniProt Q92698); assay: inhibitors of human RAD54 branch migration, confirmation, biochemical, fluorescence, cherry-picked samples, dose series (AID 651657); assay type: functional
[28] = growth suppression of beta-catenin-knockout colon cells, dose response, cell-based, HCT116, human colon tumor (AID 1045); assay type: functional;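 also: HCT116 colon tumor cells with beta catenin knocked out; cells exposed to compound for 60 hours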
[29] = target: 5-hydroxytryptamine receptor 2A (Mus musculus, UniProt P35363); assay type: functional, cell-based;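 also: CHO-K1 cells with tagged receptor and beta-arrestin; agonist potency measured as compound-induced activation of the receptor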
[30] = growth suppression of PTEN-null colon cells, dose response, cell-based, HCT116 PTEN knockout (AID 1047); assay type: functional;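 also: HCT116 colon tumor cells with PTEN knocked out; cells exposed to compound for 60 hours before readout; potency for loss of cell viability measured by luminescence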
Mu-type opioid receptor = Mu-type opioid receptor (Homo sapiens, UniProt P35372); assay type: functional, cell-based;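 also: U2OS cells with beta-arrestin recruitment to OPRM1 by beta-gal complementation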
[31] = target: Induced myeloid leukemia cell differentiation protein Mcl-1 (Homo sapiens, UniProt Q07820); assay: MCL1-BIM BH3 interaction inhibitors, dose response, biochemical, fluorescence polarization, BIM-BH3 peptide, 1536-well (AID 2217)
Bcl-2-like protein 1 = Bcl-2-like protein 1 (Homo sapiens, UniProt Q07817); assay: BCL-XL inhibitors, dose response, selectivity assay for MCL1 inhibitor project, biochemical, fluorescence polarization, 1536-well (AID 2218)
[32] = target: DNA dC->dU-editing enzyme APOBEC-3A (Homo sapiens, UniProt P31941); assay: APOBEC3A DNA deaminase inhibitors, dose response, biochemical (AID 504722); assay type: functional
[33] = target: DNA dC->dU-editing enzyme APOBEC-3G (Homo sapiens, UniProt Q9HC16); assay: Dose Response confirmation of small molecule APOBEC3G DNA Deaminase Inhibitors via a fluorescence-based single-stranded DNA deaminase assay. [Related pubchem assays (depositor defined):AID493012, AID493028]; assay type: functional

Chain of 5-hydroxytryptamine receptor 1A (P08908 whole entry): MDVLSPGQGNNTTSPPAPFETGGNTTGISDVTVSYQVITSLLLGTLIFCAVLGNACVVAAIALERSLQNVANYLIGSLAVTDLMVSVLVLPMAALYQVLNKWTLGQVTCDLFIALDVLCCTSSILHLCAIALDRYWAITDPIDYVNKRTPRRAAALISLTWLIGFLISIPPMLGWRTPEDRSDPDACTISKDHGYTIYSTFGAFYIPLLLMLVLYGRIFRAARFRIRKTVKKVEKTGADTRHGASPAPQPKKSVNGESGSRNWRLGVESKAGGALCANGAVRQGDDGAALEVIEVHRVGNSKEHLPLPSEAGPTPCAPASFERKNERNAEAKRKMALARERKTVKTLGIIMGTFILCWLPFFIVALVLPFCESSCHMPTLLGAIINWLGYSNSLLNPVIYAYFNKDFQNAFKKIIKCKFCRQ
T1 sequence (P49327 whole entry, the tested form may be a part): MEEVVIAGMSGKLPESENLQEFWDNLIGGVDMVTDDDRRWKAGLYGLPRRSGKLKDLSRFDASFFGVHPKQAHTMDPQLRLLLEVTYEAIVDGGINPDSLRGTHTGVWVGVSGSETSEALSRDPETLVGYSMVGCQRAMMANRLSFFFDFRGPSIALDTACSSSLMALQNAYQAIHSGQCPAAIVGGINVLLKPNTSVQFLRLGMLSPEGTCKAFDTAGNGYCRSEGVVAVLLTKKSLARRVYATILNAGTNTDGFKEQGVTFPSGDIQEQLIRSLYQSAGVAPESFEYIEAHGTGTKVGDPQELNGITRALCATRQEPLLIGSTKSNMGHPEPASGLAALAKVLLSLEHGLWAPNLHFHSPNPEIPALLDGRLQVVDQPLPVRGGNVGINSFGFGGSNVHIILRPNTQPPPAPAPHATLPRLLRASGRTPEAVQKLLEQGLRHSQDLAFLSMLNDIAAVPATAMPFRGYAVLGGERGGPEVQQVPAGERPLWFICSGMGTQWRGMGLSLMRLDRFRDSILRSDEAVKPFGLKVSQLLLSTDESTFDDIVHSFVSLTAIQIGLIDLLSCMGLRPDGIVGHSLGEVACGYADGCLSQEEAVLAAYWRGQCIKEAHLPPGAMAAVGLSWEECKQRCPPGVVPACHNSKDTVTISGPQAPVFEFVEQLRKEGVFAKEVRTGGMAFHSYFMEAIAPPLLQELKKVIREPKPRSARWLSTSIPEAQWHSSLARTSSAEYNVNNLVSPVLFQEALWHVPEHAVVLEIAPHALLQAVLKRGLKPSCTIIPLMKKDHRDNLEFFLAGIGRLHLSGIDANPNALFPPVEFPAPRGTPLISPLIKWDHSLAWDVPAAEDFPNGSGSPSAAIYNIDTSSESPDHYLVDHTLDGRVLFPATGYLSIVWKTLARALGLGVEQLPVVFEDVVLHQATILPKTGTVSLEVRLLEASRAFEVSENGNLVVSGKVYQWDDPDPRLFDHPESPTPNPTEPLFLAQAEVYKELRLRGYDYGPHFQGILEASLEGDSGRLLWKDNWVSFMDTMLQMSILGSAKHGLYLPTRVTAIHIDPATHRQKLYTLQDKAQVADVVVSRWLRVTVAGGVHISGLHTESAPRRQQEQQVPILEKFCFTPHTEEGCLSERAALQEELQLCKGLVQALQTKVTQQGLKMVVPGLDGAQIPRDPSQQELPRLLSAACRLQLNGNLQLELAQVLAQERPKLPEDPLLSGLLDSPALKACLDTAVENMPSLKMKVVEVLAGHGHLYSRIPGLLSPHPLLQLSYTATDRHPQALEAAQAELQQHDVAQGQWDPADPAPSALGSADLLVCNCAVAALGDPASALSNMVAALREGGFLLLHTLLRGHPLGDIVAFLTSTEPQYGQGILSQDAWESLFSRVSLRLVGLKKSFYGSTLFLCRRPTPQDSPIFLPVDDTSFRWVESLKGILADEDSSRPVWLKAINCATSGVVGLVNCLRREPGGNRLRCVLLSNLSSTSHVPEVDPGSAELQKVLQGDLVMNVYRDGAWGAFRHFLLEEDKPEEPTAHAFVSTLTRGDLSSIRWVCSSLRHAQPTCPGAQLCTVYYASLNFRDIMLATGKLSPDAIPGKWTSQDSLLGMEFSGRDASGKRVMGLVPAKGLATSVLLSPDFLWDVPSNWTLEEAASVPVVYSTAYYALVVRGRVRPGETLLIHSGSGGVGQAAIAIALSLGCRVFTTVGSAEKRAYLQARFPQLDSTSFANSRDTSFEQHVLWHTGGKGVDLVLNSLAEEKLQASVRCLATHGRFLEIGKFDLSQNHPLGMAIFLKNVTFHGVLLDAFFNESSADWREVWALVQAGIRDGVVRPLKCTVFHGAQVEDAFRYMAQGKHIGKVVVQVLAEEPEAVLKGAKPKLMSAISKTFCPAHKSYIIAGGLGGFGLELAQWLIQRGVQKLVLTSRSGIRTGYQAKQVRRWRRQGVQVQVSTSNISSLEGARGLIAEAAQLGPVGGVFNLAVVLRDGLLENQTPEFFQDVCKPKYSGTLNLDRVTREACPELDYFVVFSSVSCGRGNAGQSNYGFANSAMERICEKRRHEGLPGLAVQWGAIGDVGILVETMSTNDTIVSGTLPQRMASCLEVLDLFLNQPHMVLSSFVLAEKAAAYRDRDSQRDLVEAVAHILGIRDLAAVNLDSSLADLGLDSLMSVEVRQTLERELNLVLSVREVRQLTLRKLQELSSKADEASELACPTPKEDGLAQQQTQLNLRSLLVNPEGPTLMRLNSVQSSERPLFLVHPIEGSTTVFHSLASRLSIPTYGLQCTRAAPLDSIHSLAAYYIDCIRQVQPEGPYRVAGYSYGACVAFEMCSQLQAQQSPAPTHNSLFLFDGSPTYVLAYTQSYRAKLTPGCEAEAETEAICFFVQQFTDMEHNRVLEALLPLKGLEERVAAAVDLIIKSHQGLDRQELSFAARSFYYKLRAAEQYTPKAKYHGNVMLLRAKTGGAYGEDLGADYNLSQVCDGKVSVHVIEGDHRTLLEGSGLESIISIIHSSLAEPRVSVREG
Chain of 5-hydroxytryptamine receptor 2A (P35363 whole entry): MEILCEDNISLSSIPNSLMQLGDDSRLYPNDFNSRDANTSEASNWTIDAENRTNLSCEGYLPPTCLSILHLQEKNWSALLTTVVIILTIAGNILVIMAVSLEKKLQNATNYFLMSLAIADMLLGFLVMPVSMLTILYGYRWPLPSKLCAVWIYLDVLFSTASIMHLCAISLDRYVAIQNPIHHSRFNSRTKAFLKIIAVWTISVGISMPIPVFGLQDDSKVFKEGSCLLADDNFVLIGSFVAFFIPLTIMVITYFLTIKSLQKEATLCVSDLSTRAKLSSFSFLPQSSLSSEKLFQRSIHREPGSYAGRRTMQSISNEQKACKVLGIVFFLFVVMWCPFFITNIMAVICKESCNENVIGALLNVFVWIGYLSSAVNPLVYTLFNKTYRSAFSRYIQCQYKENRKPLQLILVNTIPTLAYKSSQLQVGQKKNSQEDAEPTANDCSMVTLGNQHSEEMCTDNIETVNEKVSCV
Chain of Sphingosine 1-phosphate receptor 1 (P21453 whole entry, the tested form may be a part): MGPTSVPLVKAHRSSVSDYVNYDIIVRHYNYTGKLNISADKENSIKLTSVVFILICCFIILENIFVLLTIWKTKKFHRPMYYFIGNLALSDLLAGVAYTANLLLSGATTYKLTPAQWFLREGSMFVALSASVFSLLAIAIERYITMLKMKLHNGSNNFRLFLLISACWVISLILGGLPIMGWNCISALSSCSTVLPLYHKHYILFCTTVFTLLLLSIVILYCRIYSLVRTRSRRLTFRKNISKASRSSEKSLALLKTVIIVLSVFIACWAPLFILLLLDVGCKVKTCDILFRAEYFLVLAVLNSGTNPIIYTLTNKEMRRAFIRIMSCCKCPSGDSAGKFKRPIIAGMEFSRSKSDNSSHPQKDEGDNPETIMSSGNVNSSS
Chain of DNA repair and recombination protein RAD54-like (Q92698 whole entry): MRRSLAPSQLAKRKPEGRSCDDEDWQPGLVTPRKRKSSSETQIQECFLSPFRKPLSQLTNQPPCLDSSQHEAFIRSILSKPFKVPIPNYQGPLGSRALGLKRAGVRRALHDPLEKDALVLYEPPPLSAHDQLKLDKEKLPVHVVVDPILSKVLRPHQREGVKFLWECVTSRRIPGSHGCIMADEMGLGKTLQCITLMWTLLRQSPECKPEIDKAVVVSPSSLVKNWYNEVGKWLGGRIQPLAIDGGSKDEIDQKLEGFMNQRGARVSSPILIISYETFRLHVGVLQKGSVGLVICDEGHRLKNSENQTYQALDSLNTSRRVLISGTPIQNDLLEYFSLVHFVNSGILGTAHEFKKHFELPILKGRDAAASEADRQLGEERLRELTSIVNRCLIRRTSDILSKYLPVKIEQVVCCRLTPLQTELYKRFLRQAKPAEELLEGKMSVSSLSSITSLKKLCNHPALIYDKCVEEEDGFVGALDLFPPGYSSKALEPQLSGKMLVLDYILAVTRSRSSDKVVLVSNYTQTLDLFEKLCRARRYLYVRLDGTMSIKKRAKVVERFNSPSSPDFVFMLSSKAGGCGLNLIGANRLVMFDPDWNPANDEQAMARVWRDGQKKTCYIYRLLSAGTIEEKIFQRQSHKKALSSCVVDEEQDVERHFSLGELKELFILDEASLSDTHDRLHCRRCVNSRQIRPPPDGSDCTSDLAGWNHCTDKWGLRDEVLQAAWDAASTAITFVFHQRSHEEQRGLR
Chain of Luciferin 4-monooxygenase (P08659 whole entry): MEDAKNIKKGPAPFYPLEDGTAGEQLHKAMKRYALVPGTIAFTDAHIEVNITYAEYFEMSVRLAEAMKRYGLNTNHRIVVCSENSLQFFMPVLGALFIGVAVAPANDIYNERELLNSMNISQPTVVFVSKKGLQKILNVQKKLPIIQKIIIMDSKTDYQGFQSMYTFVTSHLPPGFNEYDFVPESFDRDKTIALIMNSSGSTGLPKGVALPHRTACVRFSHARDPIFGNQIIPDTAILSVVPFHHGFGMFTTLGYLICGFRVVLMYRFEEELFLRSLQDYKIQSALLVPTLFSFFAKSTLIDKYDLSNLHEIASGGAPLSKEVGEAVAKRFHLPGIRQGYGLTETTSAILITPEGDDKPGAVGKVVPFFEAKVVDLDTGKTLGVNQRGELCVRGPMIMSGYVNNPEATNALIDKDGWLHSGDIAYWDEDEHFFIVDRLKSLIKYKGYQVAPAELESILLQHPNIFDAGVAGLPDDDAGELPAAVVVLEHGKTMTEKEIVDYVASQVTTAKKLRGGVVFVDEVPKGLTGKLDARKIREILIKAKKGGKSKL

COc1ccc(CN2CCN(c3ccccc3F)CC2)c(OC)c1
EC50 [1]: > 50 µM (not active)

Cc1ccccc1CS(=O)(=O)c1nnc([C@H](Cc2ccccc2)NC(=O)OC(C)(C)C)o1
AC50 [2]: 1.23 µM (active) | IC50 (Fatty acid synthase [3]): 6.74 µM (active) | IC50 [4]: 1.69 µM (active) | AC50 [5]: 3.51 µM (active) | EC50 (Protein RecA): 8.54 µM (active) | IC50 [6]: 3.49 µM (not active) | IC50 [7]: 0.695 µM (active) | IC50 [8]: > 49.8 µM (not active) | IC50 (Fatty acid synthase [9]): 8.22 µM (active) | AC50 [10]: > 70 µM (inactive) | AC50 [11]: 8.32 µM (active) | AC50 (INS1): 8.99 µM (active) | AC50 [12]: 24.1 µM (active)

COC(=O)c1c(C)nn(-c2ccccc2)c1-n1cccc1
IC50 (Prothrombin): > 50 µM (not active)

OC1=C2C(=Nc3cc4c(cc3C2c2ccc(F)cc2)OCO4)CO1 (configuration not stated)
IC50 [13]: < 0.25 µM (active) | IC50 [14]: 1.32 µM (active) | IC50 [15]: 0.112 µM (active)

CCCc1cc(-c2nc(N)ncc2-c2ccc3c(c2)OCCCO3)c(O)cc1OC
EC50 [16]: > 120 µM (not active) | EC50 [17]: 0.884 µM (active) | CC50 [18]: > 40 µM (active) | EC50 [19]: > 112 µM (not active) | EC50 [20]: 5.93 µM (active) | EC50 [21]: 6.37 µM (active) | EC50 [22]: 21 µM (active) | EC50 [23]: > 112 µM (not active) | EC50 [24]: > 120 µM (not active) | EC50 [25]: 14.7 µM (active) | AC50 [26]: 3.81 µM (active)

COc1ccc(NC(=NC(C)=O)Nc2nc(C)cc(C)n2)cc1OC
IC50 (Prothrombin): 2.95 µM (active)

c1ccc2c(c1)oc1c(Nc3ccc(CN4CCOCC4)cc3)ncnc12
AC50 [27]: 65.5 µM (active) | EC50 [20]: 15.2 µM (active) | EC50 [21]: 12.8 µM (active)

CCCCc1ccc2[nH]cc(CCN)c2c1
EC50 [28]: 12.6 µM (active) | EC50 [1]: 1.81 µM (active) | EC50 [29]: 13.3 µM (inactive) | EC50 [30]: 10.6 µM (active) | EC50 (Mu-type opioid receptor): 92.5 µM (inactive)

C=CCn1c(S)nnc1CSc1ccccc1[N+](=O)[O-]
IC50 [31]: 29.6 µM (not active) | IC50 (Bcl-2-like protein 1): > 109 µM (not active) | IC50 [32]: 38.9 µM (active) | IC50 [33]: 2.24 µM (active)
